In publication PMC4890880 (ACS infectious diseases, 2016):

Each compound was assayed on HepG2-A16-CD81EGFP cells (assay: cells). Details: Homo sapiens, HepG2, read-out: HepG2 Tox% @ 50 uM rep1.
`Cc1ccc(OCCCCCCNCCO)c(C)c1` [MMV666020] showed a cytotoxicity at 50 µM of 90%.
For `Cc1ccc(-c2cc3c(nn2)-c2ccccc2C3=O)cc1` [MMV666021], the cytotoxicity at 50 µM was 31%.
`c1ccc(Cn2c(N=Nc3c(Nc4ccccc4)ccc4ccccc34)nc3ccccc32)cc1` [MMV666023] showed a cytotoxicity at 50 µM of 83%.
Work on `COc1ccc(C(=O)NC(c2ccc(Cl)cc2Cl)c2cc(Cl)c3cccnc3c2O)cc1` (stereo not drawn) [MMV666054] yielded a cytotoxicity at 50 µM of 98%.
In the case of `Cc1ccc2cc3c(N)c4c(C)ccc(C)c4nc3nc2c1` [MMV666079], the cytotoxicity at 50 µM is reported as 97%.
Work on `O=C(NC(c1ccccc1)c1ccc2cccnc2c1O)c1ccccc1` (stereo not drawn) [MMV666080] yielded a cytotoxicity at 50 µM of 92%.
`C=C(C)CCC(C)N1CCC(N2CCC(C(=O)NCCc3ccccc3)CC2)CC1` (stereo not drawn) [MMV666110] gave a cytotoxicity at 50 µM of 91%.
Compound `CC(=O)c1ccc(NC(=O)CSc2nc(-c3ccccc3Cl)ns2)cc1` [MMV666124] has a cytotoxicity at 50 µM of 96%.
Compound `CC1=C(CC(=O)c2cccc([N+](=O)[O-])c2)C(=O)c2ccccc2C1=O` [MMV666125] has a cytotoxicity at 50 µM of 100%.
Work on `O=c1nc(C=Cc2ccc(Br)cc2)oc2ccccc12` [MMV666599] yielded a cytotoxicity at 50 µM of 70%.

Same assay, conditions: Homo sapiens, HepG2, read-out: HepG2 Tox% @ 50 uM rep2
For `Cc1ccc(-c2cc3c(nn2)-c2ccccc2C3=O)cc1` [MMV666021], the cytotoxicity at 50 µM was 9%.
Work on `c1ccc(Cn2c(N=Nc3c(Nc4ccccc4)ccc4ccccc34)nc3ccccc32)cc1` [MMV666023] yielded a cytotoxicity at 50 µM of 86%.
With `O=C(NC(c1ccccc1)c1ccc2cccnc2c1O)c1ccccc1` (stereo not drawn) [MMV666080] the cytotoxicity at 50 µM was 93%.
Compound `C=C(C)CCC(C)N1CCC(N2CCC(C(=O)NCCc3ccccc3)CC2)CC1` (stereo not drawn) [MMV666110] has a cytotoxicity at 50 µM of 97%.

Same assay, conditions: Homo sapiens, HepG2, read-out: Tox IC50
Compound `c1ccc(Cn2c(N=Nc3c(Nc4ccccc4)ccc4ccccc34)nc3ccccc32)cc1` [MMV666023] has an IC50 of 12 µM.
For `COc1ccc(C(=O)NC(c2ccc(Cl)cc2Cl)c2cc(Cl)c3cccnc3c2O)cc1` (stereo not drawn) [MMV666054], the IC50 was 12.7 µM.
In the case of `Cc1ccc2cc3c(N)c4c(C)ccc(C)c4nc3nc2c1` [MMV666079], the IC50 is reported as greater than 50 µM.
With `O=C(NC(c1ccccc1)c1ccc2cccnc2c1O)c1ccccc1` (stereo not drawn) [MMV666080] the IC50 was 4 µM.
With `CC1=C(CC(=O)c2cccc([N+](=O)[O-])c2)C(=O)c2ccccc2C1=O` [MMV666125] the IC50 was 21.1 µM.

Same assay, conditions: Homo sapiens, HepG2, read-out: Tox max inhibition (%) @ 50 uM
Compound `c1ccc(Cn2c(N=Nc3c(Nc4ccccc4)ccc4ccccc34)nc3ccccc32)cc1` [MMV666023] has an inhibition at 50 µM of 83%.
`COc1ccc(C(=O)NC(c2ccc(Cl)cc2Cl)c2cc(Cl)c3cccnc3c2O)cc1` (stereo not drawn) [MMV666054] showed an inhibition at 50 µM of 88%.
`Cc1ccc2cc3c(N)c4c(C)ccc(C)c4nc3nc2c1` [MMV666079] gave an inhibition at 50 µM of 12%.
Work on `O=C(NC(c1ccccc1)c1ccc2cccnc2c1O)c1ccccc1` (stereo not drawn) [MMV666080] yielded an inhibition at 50 µM of 84%.
With `CC1=C(CC(=O)c2cccc([N+](=O)[O-])c2)C(=O)c2ccccc2C1=O` [MMV666125] the inhibition at 50 µM was 99%.

What follows are compounds tested on Plasmodium berghei (Pb-Luc) exoerythrocytic-stage parasites (assay: microbe, parasite or virus in culture). Details: read-out: Inhibition% @ 50 uM rep1.
Work on `Cc1ccc(OCCCCCCNCCO)c(C)c1` [MMV666020] yielded an inhibition at 50 µM of 104%.
With `Cc1ccc(-c2cc3c(nn2)-c2ccccc2C3=O)cc1` [MMV666021] the inhibition at 50 µM was 99%.
With `c1ccc(Cn2c(N=Nc3c(Nc4ccccc4)ccc4ccccc34)nc3ccccc32)cc1` [MMV666023] the inhibition at 50 µM was 99%.
With `COc1ccc(C(=O)NC(c2ccc(Cl)cc2Cl)c2cc(Cl)c3cccnc3c2O)cc1` (stereo not drawn) [MMV666054] the inhibition at 50 µM was 100%.
In the case of `Cc1ccc2cc3c(N)c4c(C)ccc(C)c4nc3nc2c1` [MMV666079], the inhibition at 50 µM is reported as 103%.
In the case of `O=C(NC(c1ccccc1)c1ccc2cccnc2c1O)c1ccccc1` (stereo not drawn) [MMV666080], the inhibition at 50 µM is reported as 101%.
Compound `C=C(C)CCC(C)N1CCC(N2CCC(C(=O)NCCc3ccccc3)CC2)CC1` (stereo not drawn) [MMV666110] has an inhibition at 50 µM of 101%.
Work on `CC(=O)c1ccc(NC(=O)CSc2nc(-c3ccccc3Cl)ns2)cc1` [MMV666124] yielded an inhibition at 50 µM of 104%.
With `CC1=C(CC(=O)c2cccc([N+](=O)[O-])c2)C(=O)c2ccccc2C1=O` [MMV666125] the inhibition at 50 µM was 103%.
For `O=c1nc(C=Cc2ccc(Br)cc2)oc2ccccc12` [MMV666599], the inhibition at 50 µM was 102%.

Same assay, conditions: read-out: Inhibition% @ 50 uM rep2
`Cc1ccc(OCCCCCCNCCO)c(C)c1` [MMV666020] gave an inhibition at 50 µM of 104%.
`Cc1ccc(-c2cc3c(nn2)-c2ccccc2C3=O)cc1` [MMV666021] showed an inhibition at 50 µM of 89%.
`c1ccc(Cn2c(N=Nc3c(Nc4ccccc4)ccc4ccccc34)nc3ccccc32)cc1` [MMV666023] gave an inhibition at 50 µM of 98%.
`COc1ccc(C(=O)NC(c2ccc(Cl)cc2Cl)c2cc(Cl)c3cccnc3c2O)cc1` (stereo not drawn) [MMV666054] was tested, and the inhibition at 50 µM was 102%.
For `Cc1ccc2cc3c(N)c4c(C)ccc(C)c4nc3nc2c1` [MMV666079], the inhibition at 50 µM was 104%.
`O=C(NC(c1ccccc1)c1ccc2cccnc2c1O)c1ccccc1` (stereo not drawn) [MMV666080] was tested, and the inhibition at 50 µM was 102%.
Compound `C=C(C)CCC(C)N1CCC(N2CCC(C(=O)NCCc3ccccc3)CC2)CC1` (stereo not drawn) [MMV666110] has an inhibition at 50 µM of 99%.
Work on `CC(=O)c1ccc(NC(=O)CSc2nc(-c3ccccc3Cl)ns2)cc1` [MMV666124] yielded an inhibition at 50 µM of 104%.
`CC1=C(CC(=O)c2cccc([N+](=O)[O-])c2)C(=O)c2ccccc2C1=O` [MMV666125] gave an inhibition at 50 µM of 104%.
For `O=c1nc(C=Cc2ccc(Br)cc2)oc2ccccc12` [MMV666599], the inhibition at 50 µM was 103%.

Same assay, conditions: read-out: PbLuc IC50, dose response, 1/3 dilutions, max conc. 10 or 50 uM, unit inferred
In the case of `c1ccc(Cn2c(N=Nc3c(Nc4ccccc4)ccc4ccccc34)nc3ccccc32)cc1` [MMV666023], the IC50 is reported as 4.21 µM.
`COc1ccc(C(=O)NC(c2ccc(Cl)cc2Cl)c2cc(Cl)c3cccnc3c2O)cc1` (stereo not drawn) [MMV666054] showed an IC50 of 1.58 µM.
In the case of `O=C(NC(c1ccccc1)c1ccc2cccnc2c1O)c1ccccc1` (stereo not drawn) [MMV666080], the IC50 is reported as 1.55 µM.
`CC1=C(CC(=O)c2cccc([N+](=O)[O-])c2)C(=O)c2ccccc2C1=O` [MMV666125] showed an IC50 of 4.26 µM.

Same assay, conditions: read-out: PbLuc IC50, dose response, unit inferred
For `Cc1ccc2cc3c(N)c4c(C)ccc(C)c4nc3nc2c1` [MMV666079], the IC50 was 31.5 µM.

Same assay, conditions: read-out: PbLuc max inhibition (%) @ 50 uM
Compound `c1ccc(Cn2c(N=Nc3c(Nc4ccccc4)ccc4ccccc34)nc3ccccc32)cc1` [MMV666023] has an inhibition at 50 µM of 100%.
Compound `COc1ccc(C(=O)NC(c2ccc(Cl)cc2Cl)c2cc(Cl)c3cccnc3c2O)cc1` (stereo not drawn) [MMV666054] has an inhibition at 50 µM of 101%.
`Cc1ccc2cc3c(N)c4c(C)ccc(C)c4nc3nc2c1` [MMV666079] showed an inhibition at 50 µM of 74%.
For `O=C(NC(c1ccccc1)c1ccc2cccnc2c1O)c1ccccc1` (stereo not drawn) [MMV666080], the inhibition at 50 µM was 101%.
`CC1=C(CC(=O)c2cccc([N+](=O)[O-])c2)C(=O)c2ccccc2C1=O` [MMV666125] showed an inhibition at 50 µM of 99%.
